# Earlier results, collected in patent US9828409B2, “Bridged-cyclo-ProTides as prodrugs of therapeutic nucleosides and nucleotides” (priority 2014, dated 2017).
# Details: patients in clinical trials
smiles,measurement,value
CCOc1nc(N)nc2c1ncn2[C@@H]1O[C@@H]2COP(=O)(OC(C)C)O[C@H]2[C@@]1(C)F (stereo partly shown) [PSI-352938],level of liver enzymes in patients,elevated level of liver enzymes
